Results taken from US20240398784A1, “C-LINKED ISOQUINOLINE AMIDES AS LRRK2 INHIBITORS, PHARMACEUTICAL COMPOSITIONS, AND USES THEREOF” (Merck Sharp & Dohme LLC, priority 2021, published 2024).

Target: LRRK2 G2019S (Homo sapiens, UniProt Q5S007, G2019S)
Experiment: LRRK2 G2019S Km ATP LanthaScreen assay
Format: biochemical
Settings: read-out: LRRK2 pIC50 (converted)

Chain of LRRK2 G2019S (Q5S007 whole entry G2019S): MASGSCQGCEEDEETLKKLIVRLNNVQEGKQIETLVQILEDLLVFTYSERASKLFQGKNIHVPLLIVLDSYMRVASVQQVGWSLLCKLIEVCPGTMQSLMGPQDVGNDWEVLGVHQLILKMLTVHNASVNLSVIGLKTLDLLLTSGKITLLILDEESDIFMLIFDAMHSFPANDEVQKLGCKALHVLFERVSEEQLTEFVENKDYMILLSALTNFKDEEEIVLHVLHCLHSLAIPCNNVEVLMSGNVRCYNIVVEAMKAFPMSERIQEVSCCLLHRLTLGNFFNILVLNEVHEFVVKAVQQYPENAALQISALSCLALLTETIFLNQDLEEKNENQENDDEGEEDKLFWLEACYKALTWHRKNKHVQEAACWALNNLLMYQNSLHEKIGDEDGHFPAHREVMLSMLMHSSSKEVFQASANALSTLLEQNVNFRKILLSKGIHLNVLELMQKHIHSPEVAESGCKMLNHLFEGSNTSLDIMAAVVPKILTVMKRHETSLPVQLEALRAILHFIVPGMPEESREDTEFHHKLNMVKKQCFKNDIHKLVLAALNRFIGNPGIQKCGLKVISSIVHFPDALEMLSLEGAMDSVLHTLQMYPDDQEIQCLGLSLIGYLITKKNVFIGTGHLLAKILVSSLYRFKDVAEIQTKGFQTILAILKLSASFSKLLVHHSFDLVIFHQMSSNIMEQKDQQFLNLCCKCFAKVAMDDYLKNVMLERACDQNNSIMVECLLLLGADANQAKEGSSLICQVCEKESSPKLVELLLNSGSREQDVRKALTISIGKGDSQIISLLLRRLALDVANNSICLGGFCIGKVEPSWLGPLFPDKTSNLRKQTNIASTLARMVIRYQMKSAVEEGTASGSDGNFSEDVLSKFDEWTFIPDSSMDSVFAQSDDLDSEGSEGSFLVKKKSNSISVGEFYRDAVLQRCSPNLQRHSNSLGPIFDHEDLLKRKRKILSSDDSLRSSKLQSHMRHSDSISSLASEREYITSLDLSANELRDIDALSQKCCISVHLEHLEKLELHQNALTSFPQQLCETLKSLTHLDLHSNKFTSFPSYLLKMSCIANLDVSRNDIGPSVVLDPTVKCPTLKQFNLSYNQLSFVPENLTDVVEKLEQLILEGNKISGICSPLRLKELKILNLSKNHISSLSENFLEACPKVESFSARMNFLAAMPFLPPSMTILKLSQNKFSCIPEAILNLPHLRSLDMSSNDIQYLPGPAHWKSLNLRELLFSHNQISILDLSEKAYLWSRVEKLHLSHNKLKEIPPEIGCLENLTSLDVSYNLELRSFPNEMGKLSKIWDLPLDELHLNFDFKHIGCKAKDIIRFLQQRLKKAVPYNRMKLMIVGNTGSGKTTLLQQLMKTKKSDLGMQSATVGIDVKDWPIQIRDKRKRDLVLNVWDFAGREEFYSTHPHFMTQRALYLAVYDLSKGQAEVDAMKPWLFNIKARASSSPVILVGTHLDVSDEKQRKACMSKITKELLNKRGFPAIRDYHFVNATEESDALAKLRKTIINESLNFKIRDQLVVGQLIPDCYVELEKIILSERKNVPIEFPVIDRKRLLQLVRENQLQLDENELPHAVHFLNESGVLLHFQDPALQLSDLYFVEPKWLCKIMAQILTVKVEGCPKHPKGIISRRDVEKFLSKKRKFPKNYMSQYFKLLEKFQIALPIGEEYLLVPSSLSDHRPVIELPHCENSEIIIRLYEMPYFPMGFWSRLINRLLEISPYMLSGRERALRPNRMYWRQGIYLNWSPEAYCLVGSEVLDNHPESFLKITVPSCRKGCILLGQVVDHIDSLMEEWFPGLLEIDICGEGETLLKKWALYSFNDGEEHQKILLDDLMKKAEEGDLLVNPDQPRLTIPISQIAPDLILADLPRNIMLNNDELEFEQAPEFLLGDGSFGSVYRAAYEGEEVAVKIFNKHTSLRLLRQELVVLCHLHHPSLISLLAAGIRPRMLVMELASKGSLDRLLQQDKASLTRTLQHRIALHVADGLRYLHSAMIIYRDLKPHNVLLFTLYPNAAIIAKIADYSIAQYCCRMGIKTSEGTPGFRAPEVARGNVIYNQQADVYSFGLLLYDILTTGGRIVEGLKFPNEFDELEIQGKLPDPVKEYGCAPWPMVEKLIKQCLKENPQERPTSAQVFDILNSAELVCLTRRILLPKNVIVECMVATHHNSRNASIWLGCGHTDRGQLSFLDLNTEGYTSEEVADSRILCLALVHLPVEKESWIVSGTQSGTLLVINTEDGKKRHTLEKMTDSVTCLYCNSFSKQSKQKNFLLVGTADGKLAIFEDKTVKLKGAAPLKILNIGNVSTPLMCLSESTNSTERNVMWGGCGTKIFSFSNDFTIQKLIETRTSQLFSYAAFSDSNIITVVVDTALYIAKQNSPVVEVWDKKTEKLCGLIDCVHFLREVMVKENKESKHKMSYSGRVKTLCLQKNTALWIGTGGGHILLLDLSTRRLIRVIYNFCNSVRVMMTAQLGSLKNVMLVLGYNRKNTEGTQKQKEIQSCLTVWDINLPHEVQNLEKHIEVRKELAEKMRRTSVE

Row | SMILES | IC50
1 | CCC(=O)N1CCC(C(C)C(=O)Nc2cc3cc(C4(C#N)CC45CC5)ccc3cn2)CC1 (stereo not drawn) [Ex-2.113] | 28.2 nM
2 | CCOC1CC1C(=O)Nc1cc2cc(C3CCN(C4(C)COCC4O)CC3)c(Cl)cc2cn1 (stereo not drawn) [Ex-2.10] | 1.15 nM
3 | CC1(N2CCC(c3cc4cc(NC(=O)C5CC56CCOCC6)ncc4cc3Cl)CC2)CCOC1 (stereo not drawn) [Ex-2.23] | 0.166 nM
4 | CC1(C)CC(C(=O)Nc2cc3cc(C4(C#N)CC45CC5)ccc3cn2)CCO1 (stereo not drawn) [Ex-2.58] | 11.2 nM
5 | Cn1ccc(C2CC2C(=O)Nc2cc3cc(C4CCN(C5(C)COCC5F)CC4)c(Cl)cc3cn2)n1 (stereo not drawn) [Ex-2.84] | 0.0813 nM
6 | CC1(C)CC(C(=O)Nc2cc3cc(C4CCN(C5(C)COCC5F)CC4)c(Cl)cc3cn2)CCO1 (single isomer, unassigned) [Ex-6.36, N-(7-chloro-6-(1-(4-fluoro-3-methyltetrahydrofuran-3-yl)piperidin-4-yl)isoquinolin-3-yl)-2,2-dimethyltetrahydro-2H-pyran-4-carboxamide] | 0.0813 nM
7 | CC1(N2CCC(c3cc4cc(NC(=O)C5CC5c5cncnc5)ncc4cc3Cl)CC2)COCC1O (single isomer, unassigned) [Ex-4.36, N-(7-chloro-6-(1-(4-hydroxy-3-methyltetrahydrofuran-3-yl)piperidin-4-yl)isoquinolin-3-yl)-2-(pyrimidin-5-yl)cyclopropane-1-carboxamide] | 0.562 nM

More lines, now with the values ahead:

Row | IC50 | SMILES
8 | 9.12 nM | CC1C(C(=O)Nc2cc3cc(C4CCN(C5(C)COCC5O)CC4)c(Cl)cc3cn2)C1c1ccccn1 (single isomer, unassigned) [Ex-4.54, N-(7-chloro-6-(1-(4-hydroxy-3-methyltetrahydrofuran-3-yl)piperidin-4-yl)isoquinolin-3-yl)-2-methyl-3-(pyridin-2-yl)cyclopropane-1-carboxamide]
9 | 0.151 nM | CC(C)(O)C1CC1C(=O)Nc1cc2cc(C3CCN(C4(C)COCC4O)CC3)c(Cl)cc2cn1 (single isomer, unassigned) [Ex-4.9, Trans-N-(7-chloro-6-(1-(4-hydroxy-3-methyltetrahydrofuran-3-yl)piperidin-4-yl)isoquinolin-3-yl)-2-(2-hydroxypropan-2-yl)cyclopropane-1-carboxamide]
10 | 2.29 nM | N#CC1(c2ccc3cnc(NC(=O)C4CC4c4ccccn4)cc3c2)CC12CC2 (stereo not drawn) [Ex-2.39]
11 | 12.6 nM | N#CC1(c2cc3cc(NC(=O)C4CC4)ncc3cc2F)CC12CC2 (single isomer, unassigned) [Ex-18.10, (R or S)-N-(6-(1-cyanospiro[2.2]pentan-1-yl)-7-fluoroisoquinolin-3-yl)cyclopropanecarboxamide]
12 | 5.89 nM | CC(C)(O)C1CC1C(=O)Nc1cc2cc(C3CCN(C4(C)CCOC4)CC3)c(Cl)cc2cn1 (single isomer, unassigned) [Ex-6.13, N-(7-chloro-6-(1-(3-methyltetrahydrofuran-3-yl)piperidin-4-yl)isoquinolin-3-yl)-2-(2-hydroxypropan-2-yl)cyclopropane-1-carboxamide]
13 | 5.89 nM | O=C(Nc1cc2cc(C3CCN(C4COC4)CC3)c(Cl)cc2cn1)C1CC1(F)F (single isomer, unassigned) [Ex-1.5, (R or S)-N-(7-chloro-6-(1-(oxetan-3-yl)piperidin-4-yl)isoquinolin-3-yl)-2,2-difluorocyclopropane-1-carboxamide]
14 | 5.75 nM | Cn1ccc(C2CC2C(=O)Nc2cc3cc(C4(C#N)CC45CC5)ccc3cn2)n1 (stereo not drawn) [Ex-2.71]
15 | 1.29 nM | CC1(C)CC(C(=O)Nc2cc3cc(C4CCC(N5CCC(F)C5)CC4)c(Cl)cc3cn2)CCO1 (single isomer, unassigned) [Ex-5.15, N-(7-chloro-6-(4-(3-fluoropyrrolidin-1-yl)cyclohexyl)isoquinolin-3-yl)-2,2-dimethyltetrahydro-2H-pyran-4-carboxamid]
